Test results reported in patent US5284856A, “Oncogene-encoded kinases inhibition using 4-H-1-benzopyran-4-one derivatives” (Hoechst Aktiengesellschaft, priority 1988, dated 1994).
Counter-ions that a name gives are not always drawn.

Each molecule was assayed on T1, cAMP-dependent protein kinase (assay: 3',5'-cAMP-dependent protein kinase inhibition (catalytic sub-unit, kemptide substrate)). Details: 45 μg/ml inhibitor, 40 μM ATP, 15 minutes at 30° C., pH 6.9; hydrochloride.
T1 construct: purchased Sigma Chemical Co., St. Louis, Mo., USA
Assay type: biochemical
Method: Assay for 3', 5'-cAMP-Dependent Protein Kinase Inhibition
The catalytic sub-unit of cAMP-dependent protein kinase (Sigma) was reconstituted as described by Sigma (Sigma Chemical Co., St. Louis, Mo., USA). The enzyme activity was measured with kemptide (Sigma) (Leu-Arg-Arg-Ala-Ser-Leu-Gly) as the substrate. The inhibitor was preincubated with the enzyme, substrate (190 μM), Mg^2+ (5 mM), 0.25 mg/ml of BSA and 3.75 mM of mercaptoethanol in 50 mM of MOPA (4-morpholinopropanesulfonic acid), pH 6.9. The reaction was initiated by adding γ-^32 P ATP (40 μM). After 15 minutes at 30° C., an aliquot amount was transferred to p81 ion exchange paper (2×2 cm; Whatman Paper Ltd., Great Britain), the paper was immersed in 75 mM H3 PO4, washed and dried, and the incorporation of ^32 P was determined by means of a liquid scintillation counter.
With CN1CC[C@H](c2c(O)cc(O)c3c(=O)cc(-c4ccccc4)oc23)[C@H](O)C1 (single isomer, unassigned) [phenyl HCl (+), (+)-cis-5,7-dihydroxy-2-phenyl-8-[4-(3-hydroxy-1-methyl)piperidinyl]-4H-1-benzopyran-4-one hydrochloride] the “% inhibition of cAMP-dependent protein kinase at an inhibitor concentration of 45 μg/ml” value was 13%.
With CN1CC[C@H](c2c(O)cc(O)c3c(=O)cc(-c4ccccc4)oc23)[C@H](O)C1 (single isomer, unassigned) [phenyl HCl (-), (-)-cis-5,7-dihydroxy-2-phenyl-8-[4-(3-hydroxy-1-methyl)piperidinyl]-4H-1-benzopyran-4-one hydrochloride] the “% inhibition of cAMP-dependent protein kinase at an inhibitor concentration of 45 μg/ml” value was 46%.

Same assay, conditions: pH 6.9, 45 μg/ml inhibitor, 40 μM ATP, 15 minutes at 30° C., read-out: % inhibition of cAMP-dependent protein kinase at an inhibitor concentration of 45 μg/ml
CN1CC[C@H](c2c(O)cc(O)c3c(=O)cc(-c4ccc5ccccc5c4)oc23)[C@H](O)C1 (relative stereo) [2-naphthyl HCl (±), (±)-cis-5,7-dihydroxy-2-(2-naphthyl)-8-[4-(3-hydroxy-1-methyl)piperidinyl]-4H-1-benzopyran-4-one hydrochloride] was tested, and the inhibition at 45 µg/mL was 0%.
CCc1cc(=O)c2c(O)cc(O)c(C3CCN(C)CC3O)c2o1 (racemic) [ethyl HCl (±)] was tested, and the inhibition at 45 µg/mL was 0%.
In the case of CN1CCC(c2c(O)cc(O)c3c(=O)cc(-c4ccc(Cl)cc4)oc23)C(O)C1 (racemic) [4-chlorophenyl HCl (±)], the inhibition at 45 µg/mL is reported as 37%.
CN1CC[C@H](c2c(O)cc(O)c3c(=O)cc(-c4ccccn4)oc23)[C@H](O)C1 (relative stereo) [2-pyridyl HCl (±), (±)-cis-5,7-dihydroxy-2-(2-pyridyl)-8-[4-(3-hydroxy-1-methyl)piperidinyl]-4H-1-benzopyran-4-one hydrochloride] showed an inhibition at 45 µg/mL of 0%.
For CN1CCC(c2c(O)cc(O)c3c(=O)cc(-c4ccccc4Br)oc23)C(O)C1 (racemic) [2-bromophenyl (±)], the inhibition at 45 µg/mL was 63%.
CN1CC[C@H](c2c(O)cc(O)c3c(=O)cc(-c4cccnc4)oc23)[C@H](O)C1 (relative stereo) [3-pyridyl HCl (±), (±)-cis-5,7-dihydroxy-2-(3-pyridyl)-8-[4-(3-hydroxy-1-methyl)piperidinyl]-4H-1-benzopyran-4-one hydrochloride] gave an inhibition at 45 µg/mL of 0%.
CN1CCC(c2c(O)cc(O)c3c(=O)cc(-c4ccc(Br)cc4)oc23)C(O)C1 (racemic) [4-bromophenyl HCl (±)] showed an inhibition at 45 µg/mL of 65%.
Cc1ccc(-c2cc(=O)c3c(O)cc(O)c([C@H]4CCN(C)C[C@H]4O)c3o2)cc1 (relative stereo) [4-methylphenyl HCl (±), (±)-cis-5,7-dihydroxy-2-(4-methylphenyl)-8-[4-(3-hydroxy-1-methyl)piperidinyl]-4H-1-benzopyran-4-one hydrochloride] showed an inhibition at 45 µg/mL of 55%.
Molecule CN1CCC(c2c(O)cc(O)c3c(=O)cc(Cc4ccccc4Cl)oc23)C(O)C1 (racemic) [(2-chlorophenyl)methyl HCl (±)] has an inhibition at 45 µg/mL of 69%.
For CN1CCC(c2c(O)cc(O)c3c(=O)cc(-c4ccc(F)cc4)oc23)C(O)C1 (racemic) [4-fluorophenyl HCl (±)], the inhibition at 45 µg/mL was 25%.
For CN1CC[C@H](c2c(O)cc(O)c3c(=O)cc(-c4ccccc4)oc23)[C@H](O)C1 (relative stereo) [phenyl HCl (±), (±)-cis-5,7-dihydroxy-2-phenyl-8-[4-(3-hydroxy-1-methyl)piperidinyl]-4H-1-benzopyran-4-one hydrochloride], the inhibition at 45 µg/mL was 48%.
With CN1CC[C@H](c2c(O)cc(O)c3c(=O)cc(-c4ccncc4)oc23)[C@H](O)C1 (relative stereo) [4-pyridyl HCl (±), (±)-cis-5,7-dihydroxy-2-(4-pyridyl)-8-[4-(3-hydroxy-1-methyl)piperidinyl]-4H-1-benzopyran-4-one hydrochloride] the inhibition at 45 µg/mL was 12%.
Molecule CN1CCC(c2c(O)cc(O)c3c(=O)cc(-c4ccc(-c5ccccc5)cc4)oc23)C(O)C1 (racemic) [4-biphenyl HCl (±)] has an inhibition at 45 µg/mL of 37%.
Molecule CN1CC[C@H](c2c(O)cc(O)c3c(=O)cc(-c4ccccc4Cl)oc23)[C@H](O)C1 (relative stereo) [2-chlorophenyl HCl (±), (±)-cis-5,7-dihydroxy-2-(2-chlorophenyl)-8-[4-(3-hydroxy-1-methyl)piperidinyl]-4H-1-benzopyran-4-one hydrochloride] has an inhibition at 45 µg/mL of 29%.
CN1CC[C@H](c2c(O)cc(O)c3c(=O)cc(-c4cccs4)oc23)[C@H](O)C1 (relative stereo) [2-thiophenyl (±), (±)-cis-5,7-dihydroxy-2-(2-thienyl)-8-[4-(3-hydroxy-1-methyl)piperidinyl]-4H-1-benzopyran-4-one] showed an inhibition at 45 µg/mL of 14%.
Work on CCCc1cc(=O)c2c(O)cc(O)c(C3CCN(C)CC3O)c2o1 (single isomer, unassigned) [n-propyl HCl (-)] yielded an inhibition at 45 µg/mL of 5%.
Molecule CN1CC[C@H](c2c(O)cc(O)c3c(=O)cc(-c4ccccc4Cl)oc23)[C@H](O)C1 (single isomer, unassigned) [2-chlorophenyl HCl (+), (+)-cis-5,7-dihydroxy-2-(2-chlorophenyl)-8-[4-(3-hydroxy-1-methyl)piperidinyl]-4H-1-benzopyran-4-one hydrochloride] has an inhibition at 45 µg/mL of 27%.
Work on CCCc1cc(=O)c2c(O)cc(O)c(C3CCN(C)CC3O)c2o1 (racemic) [n-propyl HCl (±)] yielded an inhibition at 45 µg/mL of 0%.
Work on CN1CCC(c2c(O)cc(O)c3c(=O)cc(-c4ccccc4F)oc23)C(O)C1 (racemic) [2-fluorophenyl HCl (±)] yielded an inhibition at 45 µg/mL of 0%.
CN1CC[C@H](c2c(O)cc(O)c3c(=O)cc(-c4ccccn4)oc23)[C@H](O)C1 (single isomer, unassigned) [2-pyridyl HCl (-), (-)-cis-5,7-dihydroxy-2-(2-pyridyl)-8-[4-(3-hydroxy-1-methyl)piperidinyl]-4H-1-benzopyran-4-one hydrochloride] showed an inhibition at 45 µg/mL of 6%.

The molecules below were run on LXF 529 (assay: SRC Tumor Test (implantation under renal capsule of nude mouse), bronchogenic carcinoma LXF 529). Details: LXF 529, 2 mg/kg/day i.v., days 2-15.
Assay type: in vivo, human tumor xenograft in nude mouse
Method: (§1) Single cell suspensions (from cell culture A 549 or disaggregated human tumor xenografts LXF 529) in Beriplast (Behringwerke AG) were diluted 1:2 with RPMI 1640 supplemented with 15% FCS to a final cell concentration of 10^7 cells/50 μl. This suspension was sucked quickly into 50 μglass capillaries (diameter 1.5 mm), of which the inner walls had been moistered with a thrombin/CaCl2 solution (500 units thrombin in 1 ml 40 mmol CaCl2).
(§2) After solidification of the cell-fibrin mixture (about 5 min at RT) the fibrin clot has been removed from the glass capillary into a petridish by air pressure. The fibrin clot was cut into 2 mm pieces (≈5×10^5 cells per piece) and the pieces were stored in RPMI 1640 supplemented with 15% FCS until implantation.
(§3) A single fibrin piece was transferred under the renal capsule of a nude mouse and, subsequently, two perpendicular diameters of the implanted piece were measured by microscope with an ocular micrometer (day 0). The tumor size was calculated according to
b=diameter perpendicular to a
The substance was given i.v. or p.o. daily on day 2-15 with the maximal tolerable dose (MTD) and a dose 2/3 of the MTD value according to the pretests. 5 mice/group were used.
(§4) On day 21 after implantation the animals were sacrificed, the kidney was exteriorized and the tumor size was measured again. The effectivity of the test drug was calculated from the tumor growth inhibition.
The relative tumor size VR was calculated according the formula [formula] Vt =tumor size at the end of experiment (day 21) V0 =tumor size as day of implantation
Subsequently the median relative tumor size of the treated group (VT) was related to the corresponding median relative tumor size of controls (VC) according to the formula [formula] The statistical significance (p 0.05) of the antitumoral effects was calculated using the Wilcoxon U test.
CN1CC[C@H](c2c(O)cc(O)c3c(=O)cc(-c4ccccc4Cl)oc23)[C@H](O)C1 (single isomer, unassigned) [Exmp. 9, (-)-cis-5,7-Dihydroxy-2-(2-chlorophenyl)-8-[4-(3-hydroxy-1-methyl)piperidinyl]-4H-1-benzopyran-4-one hydrochloride] gave a T/C of 59%.

Same assay, conditions: LXF 529, 4 mg/kg/day i.v., days 2-15
CN1CC[C@H](c2c(O)cc(O)c3c(=O)cc(-c4ccccc4Cl)oc23)[C@H](O)C1 (single isomer, unassigned) [Exmp. 9, (-)-cis-5,7-Dihydroxy-2-(2-chlorophenyl)-8-[4-(3-hydroxy-1-methyl)piperidinyl]-4H-1-benzopyran-4-one hydrochloride] was tested, and the T/C was 51%.

Same assay, conditions: LXF 529, 25 mg/kg/day i.v., days 2-15; n.s. = not significant (P > 0.05)
Work on CN1CC[C@H](c2c(O)cc(O)c3c(=O)cc(-c4cccc(Br)c4)oc23)[C@H](O)C1 (relative stereo) [Exmp. 17, (±)-cis-5,7-Dihydroxy-2-(3-bromophenyl)-8-[4-(3-hydroxy-1-methyl)piperidinyl]-4H-1-benzopyran-4-one hydrochloride] yielded a T/C of 81%.

Same assay, conditions: LXF 529, 35 mg/kg/day i.v., days 2-15
Work on CN1CC[C@H](c2c(O)cc(O)c3c(=O)cc(-c4cccc(Br)c4)oc23)[C@H](O)C1 (relative stereo) [Exmp. 17, (±)-cis-5,7-Dihydroxy-2-(3-bromophenyl)-8-[4-(3-hydroxy-1-methyl)piperidinyl]-4H-1-benzopyran-4-one hydrochloride] yielded a T/C of 67%.

Same assay, conditions: LXF 529, 100 mg/kg/day i.v., days 2-15; n.s. = not significant (P > 0.05)
For CN1CC[C@H](c2c(O)cc(O)c3c(=O)cc(-c4ccc(O)cc4)oc23)[C@H](O)C1 (relative stereo) [Exmp. 19, (±)-cis-5,7-Dihydroxy-2-(4-hydroxyphenyl)-8-[4-(3-hydroxy-1-methyl)piperidinyl]-4H-1-benzopyran-4-one], the T/C was 98%.

Same assay, conditions: LXF 529, 150 mg/kg/day i.v., days 2-15
CN1CC[C@H](c2c(O)cc(O)c3c(=O)cc(-c4ccc(O)cc4)oc23)[C@H](O)C1 (relative stereo) [Exmp. 19, (±)-cis-5,7-Dihydroxy-2-(4-hydroxyphenyl)-8-[4-(3-hydroxy-1-methyl)piperidinyl]-4H-1-benzopyran-4-one] was tested, and the T/C was 80%.

What follows are molecules tested on A 549 (assay: SRC Tumor Test (implantation under renal capsule of nude mouse), bronchogenic carcinoma A 549). Details: A 549, 35 mg/kg/day i.v., days 2-15.
Assay type: in vivo
Method: as §1, §2, §3
b=diameter perpendicular to a […]
as §4
The relative tumor size VR was calculated according the formula [formula] […]
CN1CC[C@H](c2c(O)cc(O)c3c(=O)cc(-c4cccc(Br)c4)oc23)[C@H](O)C1 (relative stereo) [Exmp. 17, (±)-cis-5,7-Dihydroxy-2-(3-bromophenyl)-8-[4-(3-hydroxy-1-methyl)piperidinyl]-4H-1-benzopyran-4-one hydrochloride] gave a T/C of 70%.

Same assay, conditions: A 549, 100 mg/kg/day p.o., days 2-15
CN1CC[C@H](c2c(O)cc(O)c3c(=O)cc(-c4cccc(Br)c4)oc23)[C@H](O)C1 (relative stereo) [Exmp. 17, (±)-cis-5,7-Dihydroxy-2-(3-bromophenyl)-8-[4-(3-hydroxy-1-methyl)piperidinyl]-4H-1-benzopyran-4-one hydrochloride] showed a T/C of 73%.
